Measured values: US20070207191A1, “PHARMACEUTICAL COMPOSITIONS AND METHODS TO ACHIEVE AND MAINTAIN A TARGETED AND STABLE COPPER STATUS AND PREVENT AND TREAT COPPER-RELATED CENTRAL NERVOUS SYSTEM DISEASES” (priority 2006, published 2007)
Entries after “also recorded” stand apart in the source; their conditions may differ.

How the values were obtained:
[1] = Dissolution of ATTM crystals of different size in acidic buffer (pH 2); format: physicochemical
Description: After 1 hour of incubation in acidic buffer, more than 50% of ATTM was found.
• 1. ATTM purchased from Sigma-Aldrich was sieved using a 1700 micron screen. […] ATTM crystals were ground so that no crystals were larger than 50 microns. These will be referred to as small crystals. • 3. 100 mg of each type of crystal was weighed and added to separate 1.7 ml plastic centrifuge tubes. • 4. 1 ml of buffer pH 2 was added to each tube without mixing. • 5. After 1 hour, each tube was centrifuged at 14,000 rpms for 1 minute. • 6. The supernatant was removed and analyzed for ATTM content. • 7. To the pellet of each tube was added 1 ml of phosphate buffer pH 7.4 • 8. Each solution was vortex-mixed. • 9. Each tube was centrifuged at 14,000 rpms for 1 min. • 10. The supernatant from each tube was analyzed for ATTM content. Analysis: • 1. A 1 to 100 dilution of all supernatants were made in phosphate buffer pH 7.4. • 2. 2 ml of each diluted sample were added to plastic cuvettes. • 3. Absorbance was measured at 467 nm. • 4. The extinction coefficients (EC) of ATTM for each sample were calculated.
Observations: • 1. When acid buffer was added to small crystals of ATTM, the solution turned immediately black and a sulfur odor could be detected. • 2. […] This was observed by the 1 hour incubation time point. • 3. When acid buffer was added to large crystals of ATTM, a small amount of black coloration leached from the crystal. […] Conclusions: • 1. […] In acid, un-dissolved ATTM from large crystals can be liberated with a secondary dissolution in neutral media. • 5.

[2] = Example 13: dissolution of ATTM capsule in artificial gastric fluid; format: physicochemical
Description: FIG. 1 is a plot of the dissolution profile of an ammonium tetrathromolybdate (ATTM) capsule in gastric juice in accordance with Example 13 hereof; and
We performed a dissolution experiment using a capsule containing 20 mg of ammonium tetrathiomolybdate plus excipient. ATTM crystals used were 500 microns or smaller. […] After, 3 hours of dissolution, black particles released from the capsule were found suspended in solution. After neutralization of the gastric media to pH 9, these black particles disappeared resulting in about 10% of ATTM being recovered.
• 1. […] Conclusion: ˜90% of ATTM is destroyed in the stomach. Method: Material Studied • 1. Study was performed on R&D Pipex formulated capsule of ATTM. • 2. The ATTM was milled through a 500 micron sieve. • 3. The capsule contained ˜20 mg of ATTM and 180 mg of excipient. Dissolution Conditions • 1. Media: 1 liter of UPS artificial gastric fluid pH 2 • 2. Temp: 22° C. • 3. Paddle RPMs: 100 • 4. Dissolution time: 3 hours Procedure • 1. A #2 QualiCaps capsule available from Shionogi Europe, B.V. was mechanically dropped into media at time zero • 2. 1 ml of media was then collected at 1, 2, 4, 8, 16, 30, 45, 75, 120 and 180 min • 3. Following 3 hours of dissolution, the pH was raised to 9 using NaOH pellets. • 4. The media was paddled for 1 hour. • 5. After 1 hour a sample was collect for analysis Analysis • 1. 400 ul of collected media was diluted to 2 ml with phosphate buffer, pH 7 • 2. The solution was placed in a cuvette and scanned between 260 and 600 nm. • 3. Absorbance was measured at 367 nm. • 4. The extinction coefficient was calculated using Beer's law. • 5. The extinction coefficient of a reference sample in a capsule is 13500 cm^−1 M^−1 Conclusion: • 1. Any ATTM that dissolves in media at pH 2 is immediately destroyed. • 2. Some of the ATTM floated in the media as black specks following 3 hours of dissolution. • 3. After three hours when the pH of the solution was raised to pH 9, the color of the solution changed to an orange color. • 4. This presumably is stable ATTM that has dissolved. • 5. […]

[3] = Example 14: stability of ATTM capsules after eight weeks; format: physicochemical; details: stored at RT and ambient RH
[4] = infants at one month of age, supplemented 80 μg Cu/kg daily for 15 days; cited from earlier work
free copper in the CNS = details: in vivo
neural tube defects = details: adequate intake by mothers prior to pregnancy; cited from earlier work
[5] = Storage stability of tetrathiomolybdate under typical atmospheric temperature and humidity; format: physicochemical; details: within three months
Text: Tetrathiohiomolydates, under typical atmospheric condition of temperature and humidity are unstable and the active ingredient can undergo oxidation to molybdenum sulfoxide. Molydbdenum sulfoxide is not active as a copper binding agent and therapeutic agent for reduing body copper levels in humans. Tetrathiomolybdates can be expected to lose approximately 10% of its potency within three months if stored under such conditions.

[6] = Example 5: tetrathiomolybdate crystals and capsule in simulated stomach acid; format: physicochemical
Description: Large (>1000 microns) and small (<50 microns) dark orange crystals of tetrathiomolybdate are placed in a solution of a commercially available simulated stomach acid. […] The dissolution properties of the large verses small crystals are clearly distinct. To further examine the properties of a methylcellulose capsule containing 20 mg of tetrathiomolybdate and 180 mg of excipient containing a heterogenous size range (200-800 microns) of tetrathiomolybdate crystals was examined in a dissolution chamber initially containing simulated stomach acid. The gelatin capsule dissolved within 15 minutes. Tetrathiothiomolybdate recovery was assessed by UV/Visible absorption periodically over 3 hours, a time consistent with the initiation of gastric emptying and the initial phase of postprandial absorption. […] At three hours the remaining gastric juice was made alkaline by adjusting the pH to 8-9, the solution turned orange to red and was assessed by UV/V is spectroscopy to determine the recover of tetrathiothiomolybdate, which was approximately 7% of the amount in the capsule.
When the same experiment is performed with small crystals, much less than 7% of parent compound is recovered, while when the experiment is performed with large crystals much greater than 7% of parent compound is recovered.

[7] = Example 6: colour stability of crushed versus lyophilized tetrathiomolybdate; format: physicochemical
Text: Tetrathiothiomolybdate crystals are either crushed to a powder, that is initially orange in color, or placed in water to dissolve yielding a bright orange solution, which is filtered and lyophilized, which results in a dry powder orange in color.

[8] = system: intestinal absorption of copper; details: cited from earlier work
[9] = current formulations; cited from earlier work
[10] = oral dose of Cu^64 as copper acetate, humans; cited from earlier work
[11] = crystals 1700 microns or greater
[12] = pellet taken up in phosphate buffer pH 7.4
[13] = pellet taken up in phosphate buffer pH 7.4, 1 to 100 dilution
[14] = supernatant after 1 hour in buffer pH 2
[15] = supernatant after 1 hour in buffer pH 2, 1 to 100 dilution
[16] = 50 mg immediate release capsules three times per day away from meals and beverages, Wilson's disease patients

## [NH4+].[NH4+].[SH-].[SH-].[S]=[Mo]=[S] [ATTM, ammonium tetrathiomolybdate]
[1]
  survival of dissolved ATTM in acid media: does not survive in acid media
[1]; crystals 50 microns or less
  ATTM found after 1 hour of incubation in acidic buffer: no ATTM was found
  dissolution behaviour in acidic buffer (pH 2): dissolved rapidly; also recorded: dissolves in Acid media but soon forms an insoluble precipitate
[1]; [11]
  ATTM found after 1 hour of incubation in acidic buffer: more than 50%
  dissolution behaviour in acidic buffer (pH 2): dissolved slowly; also recorded: forms a black coating which seems to resist dissolution
[2]; after 3 hours of dissolution
  ATTM recovered after neutralization of the gastric media to pH 9: about 10%
[2]; artificial gastric fluid over three hours
  ATTM destroyed: ~90%
[2]; artificial gastric fluid pH 2, 22° C., up to 3 hours, crystals 500 microns or smaller
  ATTM recovered dissolved in the gastric dissolution medium: No ATTM was recovered; also recorded: No ATTM was found dissolved
[3]
  stability after 8-Weeks: completely stable

## [NH4+].[NH4+].[SH-].[SH-].[S]=[Mo]=[S] [Large Crystal, ammonium tetrathiomolybdate]
[1]; [12]
  Extinction Coefficient: 7,000
[1]; [13]
  Absorbance at 467: 0.310
[1]; [14]
  Extinction Coefficient: 0
[1]; [15]
  Absorbance at 467: 0

## [NH4+].[NH4+].[SH-].[SH-].[S]=[Mo]=[S] [Small Crystal, ammonium tetrathiomolybdate]
[1]; [12]
  Extinction Coefficient: 0
[1]; [13]
  Absorbance at 467: 0
[1]; [14]
  Extinction Coefficient: 0
[1]; [15]
  Absorbance at 467: 0

## O=S(=O)([O-])[O-].[Cu+2] [copper sulfate]
[4]
  Mean (+SD) copper absorption: 74.8+15.2%

## CC(C)(S)[C@@H](N)C(=O)O [d-pencillamine, d-penicillamine]
Free copper in the CNS
  levels of free copper in the CNS: increase the levels of free copper in the CNS

## Nc1nc2ncc(CNc3ccc(C(=O)N[C@@H](CCC(=O)O)C(=O)O)cc3)nc2c(=O)[nH]1 [folic acid]
Neural tube defects
  reduction of the incidence of NTDs: up to 70%

## [SH-].[SH-].[S]=[Mo]=[S] [tetrathiomolybdate]
[5]
  loss of potency: approximately 10%
[6]; any time point over three hours, UV/Visible absorption
  detection in simulated gastric samples, removed and neutralized: not detectable
[6]; capsule with 20 mg tetrathiomolybdate and 180 mg excipient, simulated stomach acid
  capsule dissolution time: ≤ 15 min
[6]; large (>1000 microns) crystals
  behaviour in simulated stomach acid: remain relatively intact
[6]; small (<50 microns) crystals
  behaviour in simulated stomach acid: form a disaggregate cloudy black solution
[7]; crushed crystals, nitrogen overlay, room temperature, closed tube
  colour stability: slowly turn black within a few day
[7]; lyophilized dry powder, similar conditions
  colour stability: remains orange for over a month
[7]; protected from atmosphere and moisture by covering with mineral
  colour stability: remains orange (i.e. not oxidized) for over a month
[8]; human, in vivo
  blocking of copper absorption compared with zinc: more effective blocker of copper absorption than zinc

## NCCNCCNCCN [trientine]
Free copper in the CNS
  levels of free copper in the CNS: increase the levels of free copper in the CNS

## CC(=O)[O-].CC(=O)[O-].[Zn+2] [zinc acetate]
[8]; [16]
  mean Cu^64 uptake: 0.82 % of the administered dose
  mean copper balance: -0.44 mg/day
[8]; once daily dosing of immediate release capsules
  control of copper: does not provide adequate control of copper
[9]
  stomach irritability: ~10 % of patients

## [Zn] [zinc]
[8]; Wilson's patients, from the two week point
  copper balance induced, average: −0.35 mg daily
[8]; Wilson's patients
  time to achieve intestinal metallothionein induction and a negative copper balance: approximately two
[8]; zinc therapy
  time to bring urine copper and nonceruloplasmin plasma copper down to subtoxic levels: six

## copper acetate
[10]
  oral dose absorbed from the gastrointestinal tract: about 65%
  oral dose absorbed from the gastrointestinal tract, range: 15-97%
